Data as given in US20230339886A1 (University of Florida Research Foundation, Incorporated, priority 2020, published 2023).

Molecular target: T1, REV-ERBα LBD (human; residues 281-614 Δ324-422) (Homo sapiens, UniProt P20393, DEL324-422)
T1 construct: 6×Histag-REV-ERBα LBD (human; residues 281-614 Δ324-422); made in house; host or cells: Escherichia coli
Assay: TR-FRET corepressor interaction assay (REV-ERBα LBD, FITC-SMRT peptide)
Assay type: biochemical
Conditions: Table 2, read-out: REVERBα agonism (EC50 class, FRET assay)
Method in brief: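 Compound serial dilutions (in DMSO, triplicate) incubated 2 h at 4 °C; Tb donor excited at 340 nm, emission read at 495 nm and FITC acceptor at 520 nm. TR-FRET ratio (520/495 nm) plotted against ligand concentration and fitted to a sigmoidal dose-response curve.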

T1 sequence (P20393 with tags, fused parts or gaps DEL324-422): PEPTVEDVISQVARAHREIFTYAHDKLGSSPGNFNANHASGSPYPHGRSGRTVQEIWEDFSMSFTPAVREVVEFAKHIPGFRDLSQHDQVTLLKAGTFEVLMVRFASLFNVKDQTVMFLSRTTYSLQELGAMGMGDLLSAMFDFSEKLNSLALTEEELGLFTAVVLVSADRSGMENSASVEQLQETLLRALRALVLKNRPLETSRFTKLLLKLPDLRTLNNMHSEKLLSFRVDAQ
T1 sequence (Q9Y618 2335-2356 partner limits assumed): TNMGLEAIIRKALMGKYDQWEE

| Structure (SMILES) | EC50 |
| --- | --- |
| CC(C)(C)Cc1cn(CCNS(=O)(=O)C2CC2)c2ccc(-c3cccc(F)c3Cl)cc12 [Example 228, N-(2-(5-(2-chloro-3-fluorophenyl)-3-neopentyl-1H-indol-1-yl)ethyl)cyclopropane sulfonamide] | < 500 nM |
| CC(C)(C)Cc1cn(CCNS(=O)(=O)C2CC2)c2ccc(-c3ccc(N)c(F)c3Cl)cc12 [Example 229, N-(2-(5-(4-amino-2-chloro-3-fluorophenyl)-3-neopentyl-1H-indol-1-yl)ethyl) cyclo-propanesulfonamide] | < 500 nM |
| CC(C)(C)Cc1cn(CCNS(=O)(=O)C2CC2)c2ccc(C(F)(F)F)cc12 [Example 292, N-(2-(3-neopentyl-5-(trifluoromethyl)-1H-indol-1-yl)ethyl)cyclopropanesulfonamide] | 500 to 3000 nM |
| CC(C)(C)Cc1cn(CCNS(=O)(=O)C2CC2)c2cc(F)c(Br)cc12 [Example 293, N-(2-(5-bromo-6-fluoro-3-neopentyl-1H-indol-1-yl)ethyl)cyclopropanesulfonamide] | > 3000 nM |
| CC(C)(C)Cc1cn(CCNS(=O)(=O)C2CC2)c2cc(F)c(-c3ccc(F)cc3C(F)(F)F)cc12 [Example 294] | < 500 nM |
| CC(C)(C)Cc1cn(CCNS(=O)(=O)C2CC2)c2ccc(-c3ccc(F)cc3C(F)(F)F)c(F)c12 [Example 295] | 500 to 3000 nM |
| Cc1ccccc1-c1ccc2c(c1)c(CC(C)(C)C)cn2CCNS(=O)(=O)C1CC1 [Example 302, N-(2-(3-neopentyl-5-(o-tolyl)-1H-indol-1-yl)ethyl)cyclopropanesulfonamide] | < 500 nM |
| COc1ccccc1-c1ccc2c(c1)c(CC(C)(C)C)cn2CCNS(=O)(=O)C1CC1 [Example 303, N-(2-(5-(2-methoxyphenyl)-3-neopentyl-1H-indol-1-yl)ethyl)cyclopropane-sulfonamide] | < 500 nM |
| CC(C)(C)Cc1cn(CCNS(=O)(=O)C2CC2)c2ccc(-c3ccccn3)cc12 [Example 304, N-(2-(3-neopentyl-5-(pyridin-2-yl)-1H-indol-1-yl)ethyl)cyclopropanesulfonamide] | 500 to 3000 nM |
| CC(C)(C)Cc1cn(CCNS(=O)(=O)C2CC2)c2ccc(-c3cccnc3)cc12 [Example 305, N-(2-(3-neopentyl-5-(pyridin-3-yl)-1H-indol-1-yl)ethyl)cyclopropanesulfonamide] | 500 to 3000 nM |
| CC(C)Cn1cc([C@H](NS(=O)(=O)C2CC2)C(F)(F)F)c2ccc(Br)cc21 [Example 306, (S)—N-(1-(6-bromo-1-isobutyl-1H-indol-3-yl)-2,2,2-trifluoroethyl)cyclopropanesulfonamide] | < 500 nM |
| CC(C)Cn1cc([C@H](NS(=O)(=O)C2CC2)C(F)(F)F)c2ccc(-c3ccncc3)cc21 [Example 307, (S)—N-(2,2,2-trifluoro-1-(1-isobutyl-6-(pyridin-4-yl)-1H-indol-3-yl)ethyl)cyclopropanesulfonamide] | < 500 nM |
| CC(C)Cn1cc([C@H](NS(=O)(=O)C2CC2)C(F)(F)F)c2ccc(-c3ccc(F)cc3)cc21 [Example 308, (S)—N-(2,2,2-trifluoro-1-(6-(4-fluorophenyl)-1-isobutyl-1H-indol-3-yl)ethyl)cyclopropanesulfonamide] | 500 to 3000 nM |
| CC(C)Cn1cc([C@H](NS(=O)(=O)C2CC2)C(F)(F)F)c2ccc(-c3ccccc3Cl)cc21 [Example 311, (S)—N-(1-(6-(2-chlorophenyl)-1-isobutyl-1H-indol-3-yl)-2,2,2-trifluoroethyl)cyclopropanesulfonamide] | < 500 nM |
| Cc1cc2c(cc1F)c([C@H](NS(=O)(=O)C1CC1)C(F)(F)F)cn2CC(C)C [Example 312, (S)—N-(2,2,2-trifluoro-1-(5-fluoro-1-isobutyl-6-methyl-1H-indol-3-yl)ethyl)cyclopropanesulfonamide] | < 500 nM |
| CC(C)Cn1cc([C@H](NS(=O)(=O)C2CC2)C(F)(F)F)c2cc(F)c(-c3ccccc3Cl)cc21 [Example 314, (S)—N-(1-(6-(2-chlorophenyl)-5-fluoro-1-isobutyl-1H-indol-3-yl)-2,2,2-trifluoroethyl)cyclopropanesulfonamide] | < 500 nM |
| CC(C)Cn1cc([C@H](NS(=O)(=O)C2CC2)C(F)(F)F)c2cc(F)c(C3CC3)cc21 [Example 315, (S)—N-(1-(6-cyclopropyl-5-fluoro-1-isobutyl-1H-indol-3-yl)-2,2,2-trifluoroethyl)cyclopropanesulfonamide] | < 500 nM |
| CC(C)(C)Cn1cc([C@H](NS(=O)(=O)C2CC2)C(F)(F)F)c2cc(F)c(-c3ccccc3C(F)(F)F)cc21 [Example 319, (S)—N-(2,2,2-trifluoro-1-(5-fluoro-1-neopentyl-6-(2-(trifluoromethyl)phenyl)-1H-indol-3-yl)ethyl)cyclopropanesulfonamide] | < 500 nM |
| CC(C)Cn1cc([C@H](NS(=O)(=O)N(C)C)C(F)(F)F)c2cc(F)c(-c3ccccc3C(F)(F)F)cc21 [Example 320, dimethyl({[(1S)-2,2,2-trifluoro-1-[5-fluoro-1-(2-methylpropyl)-6-[2-(trifluoromethyl)phenyl]-1H-indol-3-yl]ethyl]sulfamoyl})amine] | < 500 nM |
| CC(C)Cn1cc([C@H](NS(=O)(=O)C2CC2)C(F)(F)F)c2ccc(-c3ccc(F)cc3C(F)(F)F)cc21 [Example 324, (S)—N-(2,2,2-trifluoro-1-(6-(4-fluoro-2-(trifluoromethyl)phenyl)-1-isobutyl-1H-indol-3-yl)ethyl)cyclopropanesulfonamide] | < 500 nM |
| CC(C)Cn1cc([C@H](NS(=O)(=O)C2CC2)C(F)(F)F)c2ccc(-c3ccccc3C(F)(F)F)cc21 [Example 325] | < 500 nM |

Now from value to compound:

| EC50 | Structure (SMILES) |
| --- | --- |
| < 500 nM | CC(C)Cn1cc([C@H](NS(=O)(=O)N(C)C)C(F)(F)F)c2cc(F)c(-c3ccccc3Cl)cc21 [Example 326, {[(1S)-1-[6-(2-chlorophenyl)-5-fluoro-1-(2-methylpropyl)-1H-indol-3-yl]-2,2,2-trifluoroethyl]sulfamoyl}dimethylamine] |
| < 500 nM | CC(C)(C)Cn1cc([C@H](NS(=O)(=O)C2CC2)C(F)(F)F)c2cc(F)c(C3CC3)cc21 [Example 327, (S)—N-(1-(6-cyclopropyl-5-fluoro-1-neopentyl-1H-indol-3-yl)-2,2,2-trifluoroethyl)cyclopropanesulfonamide] |
| < 500 nM | CN(C)S(=O)(=O)N[C@@H](c1cn(CC(C)(C)C)c2cc(-c3ccccc3Cl)c(F)cc12)C(F)(F)F [Example 330, {[(1S)-1-[6-(2-chlorophenyl)-1-(2,2-dimethylpropyl)-5-fluoro-1H-indol-3-yl]-2,2,2-trifluoroethyl]sulfamoyl}dimethylamine] |
| < 500 nM | CC(C)(C)Cn1cc([C@H](NS(=O)(=O)C2CC2)C(F)(F)F)c2ccc(-c3ccccc3Cl)cc21 [Example 332, (S)—N-(1-(6-(2-chlorophenyl)-1-neopentyl-1H-indol-3-yl)-2,2,2-trifluoroethyl)cyclopropanesulfonamide] |
| 500 to 3000 nM | CC(C)Cn1cc([C@H](NS(=O)(=O)C2CC2)C(F)(F)F)c2cc(F)c(C(C)C)cc21 [Example 334, (S)—N-(2,2,2-trifluoro-1-(5-fluoro-1-isobutyl-6-isopropyl-1H-indol-3-yl)ethyl)cyclopropanesulfonamide] |
| < 500 nM | CC(C)c1ccc2c([C@H](NS(=O)(=O)C3CC3)C(F)(F)F)cn(CC(C)(C)C)c2c1 [Example 335, (S)—N-(2,2,2-trifluoro-1-(6-isopropyl-1-neopentyl-1H-indol-3-yl)ethyl)cyclopropanesulfonamide] |
| 500 to 3000 nM | CC(C)c1cc2c(cc1F)c([C@H](NS(=O)(=O)C1CC1)C(F)(F)F)cn2CC(C)(C)C [Example 336, (S)—N-(2,2,2-trifluoro-1-(5-fluoro-6-isopropyl-1-neopentyl-1H-indol-3-yl)ethyl)cyclopropanesulfonamide] |
| 500 to 3000 nM | CC(C)c1cc2c(cc1F)c([C@H](NS(=O)(=O)N(C)C)C(F)(F)F)cn2CC(C)(C)C [Example 337, {[(1S)-1-[1-(2,2-dimethylpropyl)-5-fluoro-6-(propan-2-yl)-1H-indol-3-yl]-2,2,2-trifluoroethyl]sulfamoyl}dimethylamine] |
| < 500 nM | CN(C)S(=O)(=O)N[C@@H](c1cn(CC(C)(C)C)c2cc(-c3ccccc3Cl)ccc12)C(F)(F)F [Example 338, {[(1S)-1-[6-(2-chlorophenyl)-1-(2,2-dimethylpropyl)-1H-indol-3-yl]-2,2,2-trifluoroethyl]sulfamoyl}dimethylamine] |
| < 500 nM | CC(C)Cn1cc([C@H](NS(=O)(=O)N(C)C)C(F)(F)F)c2ccc(C(C)C)cc21 [Example 339, dimethyl({[(1S)-2,2,2-trifluoro-1-[1-(2-methylpropyl)-6-(propan-2-yl)-1H-indol-3-yl]ethyl]sulfamoyl})amine] |
| < 500 nM | CC(C)Cn1cc([C@H](NS(=O)(=O)C2CC2)C(F)(F)F)c2ccc(Cl)cc21 [Example 341, (S)—N-(1-(6-chloro-1-isobutyl-1H-indol-3-yl)-2,2,2-trifluoroethyl)cyclopropanesulfonamide] |
| < 500 nM | CC(C)(C)Cn1cc([C@H](NS(=O)(=O)C2CC2)C(F)(F)F)c2ccc(Br)cc21 [Example 343, (S)—N-(1-(6-bromo-1-neopentyl-1H-indol-3-yl)-2,2,2-trifluoroethyl)cyclopropanesulfonamide] |
| < 500 nM | CC(C)(C)Cn1cc([C@H](NS(=O)(=O)N2CCC2)C(F)(F)F)c2cc(F)c(-c3ccccc3C(F)(F)F)cc21 [Example 346, (S)—N-(2,2,2-trifluoro-1-(5-fluoro-1-neopentyl-6-(2-(trifluoromethyl)phenyl)-1H-indol-3-yl)ethyl)azetidine-1-sulfonamide] |
| < 500 nM | CC(C)(C)Cn1cc([C@H](NS(=O)(=O)N2CCCC2)C(F)(F)F)c2cc(F)c(-c3ccccc3C(F)(F)F)cc21 [Example 347, (S)—N-(2,2,2-trifluoro-1-(5-fluoro-1-neopentyl-6-(2-(trifluoromethyl)phenyl)-1H-indol-3-yl)ethyl)pyrrolidine-1-sulfonamide] |
